Source: patent publication US10442767B2 (priority 2012, dated 2019)
Where two headings read alike, the source gives them in different places.

Legend:
[1] = molecular target: T1, Shaker K^+ channel (Drosophila melanogaster, UniProt P08510); assay: Inhibition of K+ currents, cut-open oocyte voltage clamp; assay type: cell-based, Xenopus oocytes; settings: for fold less potent than 4-AP: cut-open oocyte voltage clamp (Example 2); for IC50: relative K+ current at +20 mV, Xenopus oocytes, Hill fit, read-out: half-maximal inhibitory concentration (IC50)
T1 construct: injecting approximately 50 ng of WT Shaker cRNA (kit Ambion) into the oocytes; expressed in transfected cells; host or cells: Xenopus laevis oocytes (cRNA injection)
T1 sequence (P08510 whole entry): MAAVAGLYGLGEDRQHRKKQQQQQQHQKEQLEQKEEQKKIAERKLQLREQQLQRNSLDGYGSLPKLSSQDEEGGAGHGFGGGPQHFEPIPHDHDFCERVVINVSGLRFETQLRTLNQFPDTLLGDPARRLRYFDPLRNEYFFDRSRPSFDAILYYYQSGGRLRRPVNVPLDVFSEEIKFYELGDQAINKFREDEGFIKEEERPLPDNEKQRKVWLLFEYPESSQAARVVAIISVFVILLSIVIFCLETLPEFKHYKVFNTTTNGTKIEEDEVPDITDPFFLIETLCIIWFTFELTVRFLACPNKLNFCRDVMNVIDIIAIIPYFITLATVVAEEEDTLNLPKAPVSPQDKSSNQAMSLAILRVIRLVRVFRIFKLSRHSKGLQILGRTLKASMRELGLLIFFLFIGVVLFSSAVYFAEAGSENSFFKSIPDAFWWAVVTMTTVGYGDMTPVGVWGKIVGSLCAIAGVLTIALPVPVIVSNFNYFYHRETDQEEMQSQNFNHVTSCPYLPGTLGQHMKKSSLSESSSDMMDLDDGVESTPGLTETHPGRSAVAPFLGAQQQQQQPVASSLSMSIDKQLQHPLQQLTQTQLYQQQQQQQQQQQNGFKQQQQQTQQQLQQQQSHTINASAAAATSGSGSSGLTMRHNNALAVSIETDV
Protocol: Using the cut-open oocyte voltage clamp studies to screen compounds to determine their potency towards Kv1 cannels was previously described in Starace and Bezanilla et al. (2004).
For this experiment, Shaker K^+ channel from D. […] was chosen as the archetypical voltage gated K^+ channel that gives name to the family.
Electrophysiology studies are conducted according to the protocol by Stefani and Bezanilla (1998). Briefly, K^+ channel Shaker cRNA is injected into Xenopus oocytes 24 h after their surgical extraction from adult frogs. 1-5 days after injection channel currents are recorded using the cut-open voltage-clamp.
K^+ channel expression in Xenopus oocytes membranes was achieved by injecting approximately 50 ng of WT Shaker cRNA (kit Ambion) into the oocytes 24 h after surgical extraction from adult frogs and collagenase treatment. Injected oocytes were maintained in a standard oocytes solution (100 mM NaCl, 5 mM KCl, 2 mM CaCl2, and 10 mM Hepes at pH 7.5) at 16.5° C. and recordings were performed 1-3 days after injection.
K^+ currents were recorded from oocytes expressing Shaker K^+ channels using the cut-open voltage clamp technique as described by Stefani and Bezanilla. The internal solution was 120 mM KOH, 20 mM HEPES-methyl sulfonate (MES) pH 7.4, 2 mM EGTA. The external solution was 12 mM KOH, 105 mM N-methyl-D-glucamine-MES pH 7.4, 20 mM HEPES, 2 mM CaOH. […] After application, cells were voltage-clamped at least 5 min at 0 mV, then voltage-clamped at −80 mV for 1-2 min. K^+ currents were generated by applying series of 50 ms pulses from −70 mV to +40 mV in increments of 10 mV. […] Analysis of the traces was done using an in-house software. The half-maximal inhibitory concentration (IC50) for each drug was calculated by plotting the relative K^+ current vs. concentration and fitted to the Hill equation using the software Origin.
(§1) EC50=10^<log EC50>; where <log EC50>=average of log EC50 values from all experiments with the same drug. 95% C.I.=[Upper Limit . . . Lower Limit]; where U.L.=10^(log EC50+s.d.) and L.L.=10^(log EC50−s.d.). The half-life (t1/2) in the stability and pharmacokinetic experiments was calculated by fitting the data to the equation Ct=C0*exp(−k*t) where C0=initial concentration, Ct=concentration at time t, and k=ln 2/t1/2. Student t-test was used to compare results and P<0.05 was considered significant.

[2] = system: hypomyelinated optic nerves from Shiverer mice (shi^−/−); assay: Compound action potential (CAP) of dissected hypomyelinated optic nerve; assay type: cell-based, mouse; settings: for EC50: Mus musculus, hypomyelinated Shiverer optic nerve, 22 °C, Hill fit, read-out: half-maximal effective concentration (EC50) in enhancing the CAP
Protocol: (§2) In order to determine if the drugs could also be effective in enhancing compound action potentials (CAP), the effects of these compounds on the CAP of hypomyelinated optic nerves from Shiverer mice (shi^−/−) and control mice (shi^+/−, shi^+/+) were tested. Shiverer mice lack compact myelin in the CNS due to a null mutation of the myelin basic protein gene (MBP).
optic nerves were dissected from 12-16 week old Shiverer (shi^−/−) and control mice (shi^+/− and shi^+/+). Mice were euthanized by CO2 overdose and the optic nerves were quickly dissected between the eyeball and the optic chiasm. The nerves were incubated for 30 min at 37° C. in oxygenated (95% O2, 5% CO2) aCSF solution (126 mM NaCl, 3 mM KCl, 2 mM MgSO4, 26 mM NaHCO3, 2 mMCaCl2, 10 mM dextrose, pH 7.5) before the experiment.
compound action potentials (CAP) from hypomyelinated nerves (Shiverer mice, shi^−/−) and myelinated nerves (litermate controls, shi^+/− and shi^+/+) were recorded using suction electrodes as described by Stys et al. Briefly, the dissected optic nerve was placed inside a chamber containing oxygenated (5% CO2, 95% O2) aCSF (300 μL) between two suction electrodes (stimulus and recording electrodes) forming a tight seal on each end. Two additional electrodes were placed in the bath for reference. A supramaximal pulse (250 mV, 20 μs) was applied at the stimulating end of the nerve. The resulting CAP was amplified from the recording electrode using a high impedance low-noise amplifier (EG&G Princeton Applied Research Corporation) and filtered and sampled at 10-100 kHz. […] After each measurement the chamber was washed for 5 min (flow 1 mL/min) with oxygenated aCSF. The study was conducted at 22.2±1.3° C. to allow for slower conduction and the temperature was monitored throughout the experiment. CAP recordings were acquired with a SBC6711 board (Innovative Integration) controlled by in-house written software. Analysis of the traces was done using an in-house software. The half-maximal effective concentration (EC50) for each drug was calculated by plotting the final over initial amplitude vs. concentration and fitted to the Hill equation using Origin.
as §1, with “The Hill equation used to fit the data from the voltage-clamp and the optic nerve experiments was as follows: y=y0+(yf−y0)*x^n/(k^n+x^n); where n refers to the Hill coefficient (typically 1±0.1) and k refers to EC50 or IC50. y0 and yf refers to the origin and final ordinate values and were fixed at 1±0.1 or 0±0.1 depending on the experiment. EC50=10^<log” for “EC50=10^<log”

[3] = system: C57Bl/6J mice; assay: In vivo effects (tremor, seizures) after intraperitoneal injection; set-up: species or system mouse; settings: for Effect: N = 5; for effects in mice: doses up to 20 times higher
Protocol: A consequence of excessive K^+ channel blockage is the advent of seizures. 4-AP is known to cause seizures in mice at high doses.
At high doses, 4-AP causes tremors, muscle spasms and seizures.
10-week-old female C57Bl/6J mice were given an intraperitoneal injection of the drug under investigation and monitored continuously for 4 h. After 4 h no signs of drug effects could be observed. At least 72 h passed between injections to the same mice.

[4] = Parallel Artificial Membrane Permeability Assay (PAMPA); assay type: in vitro ADME; settings: porcine polar brain lipids, 0.5 mM, 16 h, n=3
Protocol: In this experiment, the inventors included highly permeable verapamil and lowly permeable theophylline as controls.
Permeability studies were performed as previously described by Sugano, et al., 2011. A 96-well microplate (acceptor compartment) was filled with PBS containing 5% DMSO. A hydrophobic filter plate (donor compartment) was placed atop the buffer-filled plate and the filter surface was impregnated with 5 μL solution of porcine polar brain lipids (Avanti Lipids) in dodecane (1% w/v). 150 μL of the test compounds dissolved in PBS containing 5% DMSO (compound concentration 0.5 mM) was added to the donor compartment and covered. The only barrier between the two compartments was the artificial BBB membrane containing the porcine polar brain lipids. The whole system was incubated for several hours.

[5] = system: K^+ channels; settings: cited from earlier work
[6] = Pharmacokinetic study after single intravenous dose; assay type: in vivo, mice (CD-1); settings: female, CD-1, mouse, mice, i.v. 0.75 mg/kg
Protocol: 39 mice (CD-1, 6-weeks old, female) were used in the study. […] The drugs were dissolved in PBS and administered via tail-vein injection to achieve a dose of 0.75 mg/kg of body weight. At specific times post injection (10 min, 30 min, 1 h, 2 h, 4 h and 24 h) blood and brain samples were collected. Blood samples were transferred into tubes containing 5% EDTA, stored on ice, and centrifuged (4° C., 1000 rpm, 15 min). Plasma (upper phase) was transferred to a new tube and stored at −80° C. for further analysis. Brain tissue samples were collected after intracardial perfusion of the mouse. Brain tissue samples were stored at −80° C. for further analysis. Drug quantification in plasma: Briefly, to a 1.5 mL Eppendorf tube containing 50 μl of plasma, 200 μl of ice-cold acetonitrile containing 1,000 ng/ml Progesterone (used as internal standard) was added in order to precipitate the proteins. The sample was vortexed, mixed and centrifuged at 4000×g for 10 min at 4° C. to remove precipitates. 140 μl supernatant was collected and transferred to a 500 μl 96-well polypropylene plate and covered using silicone plate mat. 40 μl of sample was injected in into LC-MS. Using the same sample preparation procedure 11 standard solutions ranging from 50 ng/mL to 100 μg/mL were prepared, analyzed by LC-MS and used as a calibration curve to correlate peak area of the samples to concentration. Drug quantification in brain: the mouse brain was weighted and 1 mL of water per 400 mg of tissue was added. The sample was homogenized using an electric tissue homogenizer. To a 1.5 mL Eppendorf tube containing 50 μl of homogenized sample, 200 μl of ice-cold acetonitrile containing 1000 ng/ml Demeclocycline (used as internal standard) was added in order to precipitate the proteins. The sample was vortexed, mixed and centrifuged at 4000×g for 10 min at 4° C. to remove precipitates. 140 μl supernatant was collected and transferred to a 500 μl 96-well polypropylene plate and covered using silicone plate mat. 40 μl of each sample was injected into LC-MS. Using the same sample preparation procedure 11 standard solutions ranging from 50 ng/mL to 100 μg/mL were prepared, analyzed by LC-MS and used as a calibration curve to correlate peak area of the samples to concentration.
as §1, with “The Hill equation used to fit the data from the voltage-clamp and the optic nerve experiments was as follows: y=y0+(yf−y0)*x^n/(k^n+x^n); where n refers to the Hill coefficient (typically 1±0.1) and k refers to EC50 or IC50. y0 and yf refers to the origin and final ordinate values and were fixed at 1±0.1 or 0±0.1 depending on the experiment. EC50=10^<log” for “EC50=10^<log”

[7] = system: normally myelinated optic nerves from control mice (shi^+/−, shi^+/+); assay: Compound action potential (CAP) of dissected normally myelinated optic nerve; assay type: cell-based, mouse
Protocol: as §2
optic nerves were dissected from 12-16 week old Shiverer (shi^−/−) and control mice (shi^+/− and shi^+/+). Mice were euthanized by CO2 overdose and the optic nerves were quickly dissected between the eyeball and the optic chiasm. […]
compound action potentials (CAP) from hypomyelinated nerves (Shiverer mice, shi^−/−) and myelinated nerves (litermate controls, shi^+/− and shi^+/+) were recorded using suction electrodes as described by Stys et al. Briefly, the dissected optic nerve was placed inside a chamber containing oxygenated (5% CO2, 95% O2) aCSF (300 μL) between two suction electrodes (stimulus and recording electrodes) forming a tight seal on each end. […] The study was conducted at 22.2±1.3° C. to allow for slower conduction and the temperature was monitored throughout the experiment. […] The half-maximal effective concentration (EC50) for each drug was calculated by plotting the final over initial amplitude vs. concentration and fitted to the Hill equation using Origin.

[8] = Brain distribution of [^3H] 4-AP in LPC-injected mice by autoradiography; assay type: in vivo; settings: [^3H] 4-AP 0.4 μCi/g i.v., 20-60 min
Protocol: The inventors conducted an experiment to evaluate if 4-AP selectively localizes in demyelinated (injured) areas. […] The lesions were caused by prior injection of lysophosphatidylcholine (LPC), also called lysolecithin, into their brains, which causes focal demyelination at the site of injection. Two days after LPC injection, at the peak of demyelination, the animals were injected with [^3H] […] Twenty to sixty minutes after injection of [^3H] 4-AP the mice were euthanized and their brains were dissected and frozen. The frozen brains were then cut into 20 μm sections using a cryostat and the sections mounted in slides. The slides were then exposed to radiation sensitive X-ray film at −80° C. in the dark for forty days to capture the distribution of radioactivity coming from [^3H] 4-AP throughout the brain.
After autoradiographic exposure, the slides were stained for myelin basic protein (MBP) using immunohistochemistry and imaged using fluorescent microscopy to determine the areas of demyelination.

Compound: Nc1ccncc1CF [3-MeF-4-AP, 3-fluoromethyl-4-aminopyridine]
- fold less potent than 4-AP [1]: around 10 fold
- IC50 [1]: 7450 µM
- times less potent than 4-AP ([1]; voltage-clamp and optic nerve experiments together): 6-20 times
- EC50 [2]: 286 µM
- Effect ([3]; i.p., 30 μmol/kg): No effect
- Effect ([3]; i.p., 60 μmol/kg): Very mild tremor. Normal after 30 min
- duration of effect (tremors, seizures or jerks) ([3]; i.p., 90 μmol/kg): ~45 min
- Effect ([3]; i.p., 90 μmol/kg): Tremor and occasional jerks that last ca.
- duration of tremor and seizures ([3]; i.p., 120 μmol/kg): min post-injection and last ca. 45 min.
- mice died of seizure ([3]; i.p., 120 μmol/kg): 1 of 5 mice died of seizure
- start of tremor and seizures post-injection ([3]; i.p., 120 μmol/kg): 5 min
- Effect ([3]; i.p., 120 μmol/kg): Severe tremor and seizures
- in vivo potency compared with 4-AP ([3]; i.p., mice): slightly less potent than 4-AP

Compound: Nc1ccncc1 [4-AP, 4-aminopyridine, reference compound]
- Pe: permeability coefficient across artificial membrane [4]: 0.236 ± 0.003 ×10⁻⁶ cm/s
- in vitro affinity ([5]; in vitro): ~250 µM
- concentration active in vivo ([5]; in vivo): ~0.5 µM
- Kp ([6]; brain and plasma, read-out: Cbrain/Cplasma (maximum in the brain over maximum in plasma)): 0.1 ± 0.05
- half-life ([6]; brain, read-out: half-life in brain (converted)): 1.9 h
- half-life ([6]; plasma, read-out: half-life in plasma (converted)): 0.33 h
- increase in CAP amplitude [7]: around 5%
- EC50 [2]: 59.2 µM
- increase in CAP amplitude ([2]; hypomyelinated nerves): 2-4 fold
- Effect ([3]; i.p., 30 μmol/kg): Mild tremor, mouse quiet
- Effect ([3]; i.p., 60 μmol/kg): Severe tremor, mild jerks, salivation
- duration of tremors and seizures ([3]; i.p., 90 μmol/kg): ~2 h
- start of tremors and seizures post-injection ([3]; i.p., 90 μmol/kg (highest dose)): 10 min
- Effect ([3]; i.p., 90 μmol/kg): Severe tremors and seizures that start
- brain localization by autoradiography [8]: localizes to demyelinated areas but not myelinated areas

Compound: Nc1ccnc(F)c1 [2-F-4-AP, 2-fluoro-4-aminopyridine]
- fold less potent than 4-AP [1]: at least a hundred fold-less potent
- IC50 [1]: > 10000 µM
- effect on CAP ([2]; hypomyelinated optic nerve): no effect
- effects in mice [3]: did not cause any effects
- Effect ([3]; i.p., 1920 μmol/kg): No effect

Compound: Nc1ccncc1CCF [3-EtF-4-AP, 3-fluoroethyl-4-aminopyridine]
- fold less potent than 4-AP [1]: at least a hundred fold-less potent
- IC50 [1]: > 10000 µM

Compound: Nc1ccncc1CO [3-MeOH-4-AP, 3-methanol-4-aminopyridine, reference compound]
- IC50 [1]: 4380 µM
- EC50 [2]: 386 µM
- effects in mice [3]: did not cause any effects
- Effect ([3]; i.p., 960 μmol/kg): No effect
